Source: patent publication US9732075B2, “Benzimidazole-proline derivatives” (IDORSIA PHARMACEUTICALS LTD, priority 2012, dated 2017)

What was measured:
human orexin-2 receptor = human orexin-2 receptor (Homo sapiens (Human), UniProt O43614); assay: In vitro assay: intracellular calcium measurements (FLIPR), antagonistic activity; format: cell-based; conditions: CHO cells expressing human orexin-2 receptor, orexin-A agonist, geometric mean, read-out: IC50 Ox2
Outline: (§1)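 hOX1R/hOX2R CHO cells, fluo-4 AM + 5 mM probenecid, 50 min 37 °C then 30 min RT. Cpd 120 min, then orexin-A 3 nM final; FLIPR peak height vs vehicle. IC50, geometric mean of repeats.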

human orexin-1 receptor = human orexin-1 receptor (Homo sapiens (Human), UniProt O43613); assay: as above; format: cell-based; conditions: CHO cells expressing human orexin-1 receptor, orexin-A agonist, geometric mean, read-out: IC50 Ox1
Outline: as §1

Chain of human orexin-2 receptor (O43614 whole entry): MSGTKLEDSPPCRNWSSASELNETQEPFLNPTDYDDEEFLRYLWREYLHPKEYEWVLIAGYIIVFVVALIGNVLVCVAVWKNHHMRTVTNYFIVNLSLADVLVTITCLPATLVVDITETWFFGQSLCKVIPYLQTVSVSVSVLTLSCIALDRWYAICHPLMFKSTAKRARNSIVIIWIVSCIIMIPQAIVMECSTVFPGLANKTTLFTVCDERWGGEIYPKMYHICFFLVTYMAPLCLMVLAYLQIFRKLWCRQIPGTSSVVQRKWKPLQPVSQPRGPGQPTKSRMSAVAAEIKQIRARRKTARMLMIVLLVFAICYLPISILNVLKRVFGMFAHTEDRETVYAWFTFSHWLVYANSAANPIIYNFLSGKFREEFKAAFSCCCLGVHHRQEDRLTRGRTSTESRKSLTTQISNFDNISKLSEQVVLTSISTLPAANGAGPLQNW
Chain of human orexin-1 receptor (O43613 whole entry): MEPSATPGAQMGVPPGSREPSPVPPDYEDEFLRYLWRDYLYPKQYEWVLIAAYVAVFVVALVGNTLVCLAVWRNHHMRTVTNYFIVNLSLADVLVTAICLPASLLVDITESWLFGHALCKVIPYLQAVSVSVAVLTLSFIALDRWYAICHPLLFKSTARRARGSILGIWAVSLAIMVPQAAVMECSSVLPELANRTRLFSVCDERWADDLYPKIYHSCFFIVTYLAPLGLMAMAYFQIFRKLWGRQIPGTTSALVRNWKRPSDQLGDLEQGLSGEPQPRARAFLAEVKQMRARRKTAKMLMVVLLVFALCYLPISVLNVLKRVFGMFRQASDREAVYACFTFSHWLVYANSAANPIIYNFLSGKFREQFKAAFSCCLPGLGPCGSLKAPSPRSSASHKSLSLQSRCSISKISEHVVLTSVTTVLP

| SMILES | IC50 (human orexin-2 receptor) | IC50 (human orexin-1 receptor) |
| --- | --- | --- |
| Cc1ccc(-c2ccc(C#N)cc2)c(C(=O)N2CCC[C@@]2(C)c2nc3cc(C(F)(F)F)c(Cl)cc3[nH]2)c1 [Ex. 5.160] | 113 nM | 38 nM |
| Cc1ccc(-c2cccc(C)c2C)c(C(=O)N2CCC[C@@]2(C)c2nc3cc(C(F)(F)F)c(Cl)cc3[nH]2)c1 [Ex. 5.161] | 388 nM | 405 nM |
| CCOc1ccc(-c2ccc(C)cc2C(=O)N2CCC[C@@]2(C)c2nc3cc(C(F)(F)F)c(Cl)cc3[nH]2)cc1 [Ex. 5.162] | 250 nM | 252 nM |
| Cc1ccc(-c2cccc(OC(F)(F)F)c2)c(C(=O)N2CCC[C@@]2(C)c2nc3cc(C(F)(F)F)c(Cl)cc3[nH]2)c1 [Ex. 5.163] | 401 nM | 142 nM |
| C[C@@]1(c2nc3cc(C(F)(F)F)ccc3[nH]2)CCCN1C(=O)c1c(F)cccc1-n1nccn1 [Ex. 5.164] | 419 nM | 104 nM |
| C[C@@]1(c2nc3cc(C(F)(F)F)ccc3[nH]2)CCCN1C(=O)c1cc(F)ccc1-n1nccn1 [Ex. 5.165] | 355 nM | 65 nM |
| C[C@@]1(c2nc3cc(C(F)(F)F)ccc3[nH]2)CCCN1C(=O)c1cc(Cl)ccc1-n1nccn1 [Ex. 5.166] | 59 nM | 13 nM |
| C[C@@]1(c2nc3cc(C(F)(F)F)ccc3[nH]2)CCCN1C(=O)c1ccccc1-n1nccn1 [Ex. 5.167] | 351 nM | 91 nM |
| COc1ccc(-n2nccn2)c(C(=O)N2CCC[C@@]2(C)c2nc3cc(C(F)(F)F)ccc3[nH]2)c1F [Ex. 5.168] | 570 nM | 64 nM |
| Cc1ccc(-n2nccn2)c(C(=O)N2CCC[C@@]2(C)c2nc3cc(C(F)(F)F)ccc3[nH]2)c1F [Ex. 5.169] | 197 nM | 63 nM |
| Cc1cc(C(=O)N2CCC[C@@]2(C)c2nc3cc(C(F)(F)F)ccc3[nH]2)c(-n2nccn2)cc1C [Ex. 5.170] | 13 nM | 2 nM |
| Cc1ccc(C(=O)N2CCC[C@@]2(C)c2nc3cc(C(F)(F)F)ccc3[nH]2)c(-n2nccn2)c1 [Ex. 5.171] | 58 nM | 12 nM |
| C[C@@]1(c2nc3cc(C(F)(F)F)ccc3[nH]2)CCCN1C(=O)c1cc(C(F)(F)F)ccc1-n1nccn1 [Ex. 5.172] | 704 nM | 92 nM |
| C[C@@]1(c2nc3cc(C(F)(F)F)ccc3[nH]2)CCCN1C(=O)c1cc(OC(F)(F)F)ccc1-n1nccn1 [Ex. 5.173] | 1140 nM | 290 nM |
| COc1cc(C(=O)N2CCC[C@@]2(C)c2nc3cc(C(F)(F)F)ccc3[nH]2)c(-n2nccn2)cc1OC [Ex. 5.174] | 133 nM | 59 nM |
| Cc1ccc(-n2cccn2)c(C(=O)N2CCC[C@@]2(C)c2nc3cc(C(F)(F)F)ccc3[nH]2)c1 [Ex. 5.175] | 355 nM | 24 nM |
| C[C@@]1(c2nc3cc(C(F)(F)F)ccc3[nH]2)CCCN1C(=O)c1ccccc1-n1cccn1 [Ex. 5.176] | 1070 nM | 389 nM |
| Cc1ccc(-n2cccn2)c(C(=O)N2CCC[C@@]2(C)c2nc3cc(C(F)(F)F)ccc3[nH]2)n1 [Ex. 5.177] | 860 nM | 76 nM |
| Cc1ccc(-n2nccn2)c(C(=O)N2CCC[C@@]2(C)c2nc3cc(C(F)(F)F)ccc3[nH]2)n1 [Ex. 5.178] | 280 nM | 20 nM |
| Cc1cccc(C(=O)N2CCC[C@@]2(C)c2nc3cc(C(F)(F)F)ccc3[nH]2)c1-n1nccn1 [Ex. 5.179] | 1120 nM | 368 nM |

| SMILES | IC50 (human orexin-2 receptor) | IC50 (human orexin-1 receptor) |
| --- | --- | --- |
| C[C@@]1(c2nc3cc(C(F)(F)F)ccc3[nH]2)CCCN1C(=O)c1cc(C#N)ccc1-n1nccn1 [Ex. 5.180] | 261 nM | 42 nM |
| Cc1ccc(-c2ccc(F)cc2C)c(C(=O)N2CCC[C@@]2(C)c2nc3cc(C(F)(F)F)ccc3[nH]2)c1 [Ex. 5.181] | 556 nM | 385 nM |
| Cc1ccc(-c2cccc(F)c2)c(C(=O)N2CCC[C@@]2(C)c2nc3cc(C(F)(F)F)ccc3[nH]2)c1 [Ex. 5.182] | 55 nM | 10 nM |
| Cc1ccc(-c2ccc(C(F)(F)F)cc2)c(C(=O)N2CCC[C@@]2(C)c2nc3cc(C(F)(F)F)ccc3[nH]2)c1 [Ex. 5.183] | 1160 nM | 339 nM |
| Cc1ccc(-c2cccc(OC(F)(F)F)c2)c(C(=O)N2CCC[C@@]2(C)c2nc3cc(C(F)(F)F)ccc3[nH]2)c1 [Ex. 5.184] | 413 nM | 300 nM |
| COc1ccccc1-c1ccc(C)cc1C(=O)N1CCC[C@@]1(C)c1nc2cc(C(F)(F)F)ccc2[nH]1 [Ex. 5.185] | 283 nM | 91 nM |
| Cc1ccc(-c2ccccc2C)c(C(=O)N2CCC[C@@]2(C)c2nc3cc(C(F)(F)F)ccc3[nH]2)c1 [Ex. 5.186] | 294 nM | 120 nM |
| Cc1ccc(-c2ccc(OC(F)(F)F)cc2)c(C(=O)N2CCC[C@@]2(C)c2nc3cc(C(F)(F)F)ccc3[nH]2)c1 [Ex. 5.187] | > 2590 nM | 310 nM |
| COc1cccc(-c2ccc(C)cc2C(=O)N2CCC[C@@]2(C)c2nc3cc(C(F)(F)F)ccc3[nH]2)c1 [Ex. 5.188] | 119 nM | 23 nM |
| Cc1cccc(-c2ccc(C)cc2C(=O)N2CCC[C@@]2(C)c2nc3cc(C(F)(F)F)ccc3[nH]2)c1 [Ex. 5.189] | 62 nM | 16 nM |
| Cc1ccc(-c2cccc(C#N)c2)c(C(=O)N2CCC[C@@]2(C)c2nc3cc(C(F)(F)F)ccc3[nH]2)c1 [Ex. 5.190] | 119 nM | 58 nM |
| COc1ccc(-c2ccc(C)cc2C(=O)N2CCC[C@@]2(C)c2nc3cc(C(F)(F)F)ccc3[nH]2)cc1 [Ex. 5.191] | 69 nM | 18 nM |
| Cc1ccc(-c2ccc(C)cc2C(=O)N2CCC[C@@]2(C)c2nc3cc(C(F)(F)F)ccc3[nH]2)cc1 [Ex. 5.192] | 88 nM | 23 nM |
| Cc1ccc(-c2ccc(C#N)cc2)c(C(=O)N2CCC[C@@]2(C)c2nc3cc(C(F)(F)F)ccc3[nH]2)c1 [Ex. 5.193] | 203 nM | 24 nM |
| Cc1ccc(-c2ccccc2F)c(C(=O)N2CCC[C@@]2(C)c2nc3cc(C(F)(F)F)ccc3[nH]2)c1 [Ex. 5.194] | 98 nM | 13 nM |
| Cc1ccc(-c2cccc(C(F)(F)F)c2)c(C(=O)N2CCC[C@@]2(C)c2nc3cc(C(F)(F)F)ccc3[nH]2)c1 [Ex. 5.195] | 102 nM | 73 nM |
| Cc1ccc(-c2cccc(C)c2C)c(C(=O)N2CCC[C@@]2(C)c2nc3cc(C(F)(F)F)ccc3[nH]2)c1 [Ex. 5.196] | 199 nM | 91 nM |
| Cc1ccc(-c2ccc(F)cc2)c(C(=O)N2CCC[C@@]2(C)c2nc3cc(C(F)(F)F)ccc3[nH]2)c1 [Ex. 5.197] | 166 nM | 18 nM |
| Cc1ccc(-c2ccc3c(c2)OCO3)c(C(=O)N2CCC[C@@]2(C)c2nc3cc(C(F)(F)F)ccc3[nH]2)c1 [Ex. 5.198] | 34 nM | 18 nM |
| Cc1cc(C(=O)N2CCC[C@@]2(C)c2nc3c(F)c(F)ccc3[nH]2)c(-n2nccn2)cc1C [Ex. 5.199] | 83 nM | 12 nM |

| SMILES | IC50 (human orexin-2 receptor) | IC50 (human orexin-1 receptor) |
| --- | --- | --- |
| C[C@@]1(c2nc3c(F)c(F)ccc3[nH]2)CCCN1C(=O)c1cc(Cl)ccc1-n1nccn1 [Ex. 5.200] | 517 nM | 115 nM |
| Cc1ccc(-n2cccn2)c(C(=O)N2CCC[C@@]2(C)c2nc3c(F)c(F)ccc3[nH]2)c1 [Ex. 5.201] | 861 nM | 265 nM |
| Cc1ccc(C(=O)N2CCC[C@@]2(C)c2nc3c(F)c(F)ccc3[nH]2)c(-n2nccn2)c1 [Ex. 5.202] | 924 nM | 227 nM |
| COc1ccc(-n2nccn2)c(C(=O)N2CCC[C@@]2(C)c2nc3c(F)c(F)ccc3[nH]2)c1F [Ex. 5.203] | 1380 nM | 195 nM |
| C[C@@]1(c2nc3c(F)c(F)ccc3[nH]2)CCCN1C(=O)c1cc(F)ccc1-n1nccn1 [Ex. 5.204] | 900 nM | 360 nM |
| Cc1ccc(-n2nccn2)c(C(=O)N2CCC[C@@]2(C)c2nc3c(F)c(F)ccc3[nH]2)n1 [Ex. 5.205] | 852 nM | 149 nM |
| Cc1nc(C(=O)N2CCC[C@@]2(C)c2nc3c(F)c(F)ccc3[nH]2)c(-c2ccccc2)s1 [Ex. 5.206] | 117 nM | 19 nM |
| Cc1nc(C(=O)N2CCC[C@@]2(C)c2nc3c(F)c(F)ccc3[nH]2)c(-c2cccc(Cl)c2)s1 [Ex. 5.207] | 78 nM | 15 nM |
| Cc1nc(C(=O)N2CCC[C@@]2(C)c2nc3ccc(F)c(F)c3[nH]2)c(-c2ccc(F)cc2)s1 [Ex. 5.208] | 284 nM | 53 nM |
| Cc1ccc(-c2sc(C)nc2C(=O)N2CCC[C@@]2(C)c2nc3c(F)c(F)ccc3[nH]2)cc1 [Ex. 5.209] | 101 nM | 17 nM |
| Cc1cccc(-c2sc(C)nc2C(=O)N2CCC[C@@]2(C)c2nc3ccc(F)c(F)c3[nH]2)c1 [Ex. 5.210] | 27 nM | 3 nM |
| Cc1nc(C(=O)N2CCC[C@@]2(C)c2nc3c(F)c(F)ccc3[nH]2)c(-c2ccc(Cl)cc2)s1 [Ex. 5.211] | 159 nM | 27 nM |
| Cc1nc(C(=O)N2CCC[C@@]2(C)c2nc3c(F)c(F)ccc3[nH]2)c(-c2cccc(F)c2)s1 [Ex. 5.212] | 239 nM | 26 nM |
| COc1cccc(-c2sc(C)nc2C(=O)N2CCC[C@@]2(C)c2nc3c(F)c(F)ccc3[nH]2)c1 [Ex. 5.213] | 51 nM | 16 nM |
| Cc1ccc(-c2ncccn2)c(C(=O)N2CCC[C@@]2(C)c2nc3c(C)c(Cl)ccc3[nH]2)c1 [Ex. 5.214] | 4 nM | 2 nM |
| Cc1ccc(-c2ccccn2)c(C(=O)N2CCC[C@@]2(C)c2nc3c(C)c(Cl)ccc3[nH]2)c1 [Ex. 5.215] | 11 nM | 4 nM |
| Cc1ccc(-c2cccnc2)c(C(=O)N2CCC[C@@]2(C)c2nc3ccc(Cl)c(C)c3[nH]2)c1 [Ex. 5.216] | 45 nM | 15 nM |
| Cc1ccc(-c2cccnc2)c(C(=O)N2CCC[C@@]2(C)c2nc3ccc(Cl)c(C)c3[nH]2)c1 [Ex. 5.217] | 274 nM | 98 nM |
